≈ marks a conversion by molar mass, not a printed value.
Columns and labels:
[1] = Reconstitution of lyophilized cake: time, appearance, visual stability (no precipitation or phase separation); type: physicochemical; settings: PVP-PLA 90 mg/mL, 75 mM sodium phosphate buffer pH 7.4
Procedure: PVP-PDLLA (POLYMER 1 and POLYMER 2) samples were dissolved in mixtures of water and various amounts of tert-butyl alcohol (TBA). Propofol is then added to the PVP-PDLLA solution. Water is then added to the TBA/PVP-PDLLA/propofol solution to the desired final volume. Final TBA concentration in these solutions was 10-30%. Drug loading levels, % w/w of propofol/(propofol PVP-PDLLA), were also varied from 5, 7, 8, 10, 12, 15 and 20%. Solutions were then frozen in a dry ice/acetone bath and lyophilized for at least 24 hours.
PVP-PDLLA (POLYMER 1) is dissolved directly in water at concentrations between 100 to 350 mg/mL. Propofol is added to the PVP-PDLLA solution and mixed until a homogenous solution is obtained. The solution is then diluted to a concentration of 1% w/v of propofol. 7, 10 and 12% w/w drug loading levels were tested. All solutions were then filtered using 0.2 μm sterile filters and frozen in acetone/dry ice bath or in −80° C. freezer for at least 4 hours before being lyophilized for 48 hours. Solid lyophilized cakes of 7, 10 and 12% w/w were reconstituted by adding water for injection.
PVP-PDLLA (lot # POLYMER 1, POLYMER 2, POLYMER 3, POLYMER 4 and POLYMER 5) is dissolved directly in 100 mM sodium phosphate buffer, pH 7.4, at concentrations between 100 to 350 mg/mL. Propofol is added to the PVP-PDLLA solution and mixed until a homogenous solution is obtained. […]

[2] = room temperature; cited from earlier work
humans or animals = settings: cited from earlier work

SMILES | appearance after reconstitution by addition of water [1] | aqueous solubility [2] | half life (humans or animals; in vivo) | time to hypnosis from the start of an administration (humans or animals; intravenous injection of a therapeutic dose)
Cc1ccc2ccccc2n1 [quinaldine] | Clear solutions |  |  | 
OCCOc1ccccc1 [2-phenoxyethanol] | Clear solutions |  |  | 
CC(C)c1cccc(C(C)C)c1O [Propofol, 2,6-bis-(1-methylethyl)phenol] |  | ~154 µg/mL (≈ 864 µM) | 10 to 15 min | ≤ 40 s

From patent publication US10561735B2, “Solid formulations of liquid biologically active agents” (Paladin Labs Inc., priority 2004, dated 2020)
